From US20250215029A1 (Recludix Pharma, Inc., priority 2022, published 2025)
Where two headings read alike, the source gives them in different places.

Experiments:
pY705-STAT3 in PBMC = biological target: T1, pY705-STAT3 in PBMC (Homo sapiens, UniProt P40763); test: MSD-pSTAT-PBMC Assay (pSTAT3, IL-6 stimulated); format: cell-based; conditions: PBMC, compound 3 hrs, then 10 ng/mL IL-6 for 10 min; Table 115; read-out: STAT3
T1 construct: Cryopreserved Peripheral Blood Mononuclear Cells (PBMC) are from AllCells; host or cells: cryopreserved PBMC
T1 sequence (P40763 whole entry): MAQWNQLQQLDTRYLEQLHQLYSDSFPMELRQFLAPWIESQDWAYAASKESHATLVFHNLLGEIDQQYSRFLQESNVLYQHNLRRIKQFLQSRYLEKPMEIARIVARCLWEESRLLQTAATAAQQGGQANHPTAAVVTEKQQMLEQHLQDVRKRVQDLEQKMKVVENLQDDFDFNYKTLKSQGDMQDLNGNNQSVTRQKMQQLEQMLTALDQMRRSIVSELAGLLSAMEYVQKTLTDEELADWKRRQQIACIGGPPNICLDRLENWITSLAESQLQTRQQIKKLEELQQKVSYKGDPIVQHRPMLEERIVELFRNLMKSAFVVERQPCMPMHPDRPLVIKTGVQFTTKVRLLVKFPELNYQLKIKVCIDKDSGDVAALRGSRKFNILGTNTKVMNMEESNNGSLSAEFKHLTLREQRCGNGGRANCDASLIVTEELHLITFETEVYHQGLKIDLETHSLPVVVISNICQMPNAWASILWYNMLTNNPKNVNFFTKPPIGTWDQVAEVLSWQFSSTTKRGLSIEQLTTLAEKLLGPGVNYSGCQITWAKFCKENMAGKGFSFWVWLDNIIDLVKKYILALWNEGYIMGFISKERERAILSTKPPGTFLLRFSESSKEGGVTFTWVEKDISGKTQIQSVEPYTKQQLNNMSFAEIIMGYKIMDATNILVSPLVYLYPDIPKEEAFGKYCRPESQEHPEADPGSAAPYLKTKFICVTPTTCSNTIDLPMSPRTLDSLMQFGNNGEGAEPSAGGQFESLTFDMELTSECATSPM
In short: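 pY705-STAT3 was detected electrochemiluminescently on total-STAT3 capture plates, using lysates of human PBMCs given compound for 3 h and then IL-6 (10 ng/mL, 10 min). Values were background-subtracted against unstimulated wells and set relative to DMSO. IC50 was fitted with variable slope.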

pY641-STAT6 in PBMC = biological target: T2, pY641-STAT6 in PBMC (Homo sapiens, UniProt P42226); test: MSD-pSTAT-PBMC Assay (pSTAT6, IL-4 stimulated); format: cell-based; conditions: compound 3 hrs, then 1 ng/mL IL-4 for 10 min, Table 115
T2 construct: Cryopreserved Peripheral Blood Mononuclear Cells (PBMC) are from AllCells; host or cells: cryopreserved PBMC
T2 sequence (P42226 1-847): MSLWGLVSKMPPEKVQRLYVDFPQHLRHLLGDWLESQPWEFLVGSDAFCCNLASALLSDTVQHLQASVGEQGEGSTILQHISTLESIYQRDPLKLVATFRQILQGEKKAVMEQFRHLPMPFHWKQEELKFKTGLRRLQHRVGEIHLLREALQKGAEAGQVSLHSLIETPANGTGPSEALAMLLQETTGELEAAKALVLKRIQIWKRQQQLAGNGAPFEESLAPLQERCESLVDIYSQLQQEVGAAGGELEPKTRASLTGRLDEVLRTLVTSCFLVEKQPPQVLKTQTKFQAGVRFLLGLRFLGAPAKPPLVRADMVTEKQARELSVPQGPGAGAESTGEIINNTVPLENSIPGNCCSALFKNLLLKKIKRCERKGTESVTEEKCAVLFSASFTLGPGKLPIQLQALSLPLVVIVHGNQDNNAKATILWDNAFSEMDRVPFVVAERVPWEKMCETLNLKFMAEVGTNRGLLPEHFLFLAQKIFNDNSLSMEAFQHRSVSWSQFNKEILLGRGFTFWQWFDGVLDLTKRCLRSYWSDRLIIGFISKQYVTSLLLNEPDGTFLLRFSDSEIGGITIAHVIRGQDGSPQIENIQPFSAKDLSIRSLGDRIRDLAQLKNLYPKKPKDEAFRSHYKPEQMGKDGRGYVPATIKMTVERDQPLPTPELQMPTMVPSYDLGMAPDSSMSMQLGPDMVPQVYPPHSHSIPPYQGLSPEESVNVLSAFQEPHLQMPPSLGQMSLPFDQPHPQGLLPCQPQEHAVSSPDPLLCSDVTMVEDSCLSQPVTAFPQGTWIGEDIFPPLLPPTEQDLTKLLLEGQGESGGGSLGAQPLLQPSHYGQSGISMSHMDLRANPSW
In short: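 Cells are preincubated with compound for 3 hrs, then stimulated for 10 min, IL-4 at 1 ng/mL driving STAT6 phosphorylation and IL-6 at 10 ng/mL driving STAT3. Phospho-STAT in lysates is quantified by MSD immunoassay, and IC50 is fitted after subtracting unstimulated wells.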

| IC50 (pY641-STAT6 in PBMC; PBMC, read-out: STAT6) | SMILES | IC50 (pY705-STAT3 in PBMC) | IC50 (pY641-STAT6 in PBMC; STAT6, PBMC) |
| --- | --- | --- | --- |
|  | CCCCOC(=O)[C@H](C)NP(=O)(Oc1cccc2ccccc12)C(F)(F)c1ccc2ccc(C(=O)N[C@H]3CCCC[C@H]4CC[C@@H](C(=O)N5CC(c6ccccc6)CC56CC6)N4C3=O)cc2c1 (stereo partly drawn) [Compound 406, butyl ((difluoro(7-(((3S,6S,10aS)-5-oxo-3-(6-phenyl-4-azaspiro[2.4]heptane-4-carbonyl)decahydropyrrolo[1,2-a]azocin-6-yl)carbamoyl)naphthalen-2-yl)methyl) (naphthalen-1-yloxy)phosphoryl)-L-alaninate] | > 3000 nM | 1000 to 3000 nM |
|  | CCCCOC(=O)[C@H](C)NP(=O)(Oc1ccccc1)C(F)(F)c1ccc2ccc(C(=O)N[C@H]3CCCC[C@H]4CC[C@@H](C(=O)N5CC(c6ccccc6)CC56CC6)N4C3=O)cc2c1 (stereo partly drawn) [Compound 407, butyl ((difluoro(7-(((3S,6S,10aS)-5-oxo-3-(6-phenyl-4-azaspiro[2.4]heptane-4-carbonyl)decahydropyrrolo[1,2-a]azocin-6-yl)carbamoyl)naphthalen-2-yl)methyl)(phenoxy)phosphoryl)-L-alaninate] | > 3000 nM | 1000 to 3000 nM |
|  | CCCOC(=O)[C@H](C)NP(=O)(Cc1ccc2ccc(C(=O)N[C@H]3CCCC[C@H]4CC[C@@H](C(=O)N5C[C@@H](c6cc[nH]c(=O)c6)CC56CC6)N4C3=O)cc2c1)Oc1ccccc1 (stereo partly drawn) [Compound 409, propyl (((7-(((3S,6S,10aS)-5-oxo-3-((R)-6-(2-oxo-1,2-dihydropyridin-4-yl)-4-azaspiro[2.4]heptane-4-carbonyl)decahydropyrrolo[1,2-a]azocin-6-yl)carbamoyl)naphthalen-2-yl)methyl)(phenoxy)phosphoryl)-L-alaninate] | > 3000 nM | 1000 to 3000 nM |
|  | CC(C)COC(=O)[C@H](C)NP(=O)(Cc1ccc2ccc(C(=O)N[C@H]3CCCC[C@H]4CC[C@@H](C(=O)N5CC(c6ccccc6)CC56CC6)N4C3=O)cc2c1)Oc1ccccc1 (stereo partly drawn) [Compound 410, isobutyl (((7-(((3S,6S,10aS)-5-oxo-3-(6-phenyl-4-azaspiro[2.4]heptane-4-carbonyl)decahydropyrrolo[1,2-a]azocin-6-yl)carbamoyl)naphthalen-2-yl)methyl)(phenoxy)phosphoryl)-L-alaninate] | > 3000 nM | > 3000 nM |
|  | CCCOC(=O)[C@H](C)NP(=O)(Oc1ccccc1)C(F)c1ccc2sc(C(=O)N[C@H]3CCC[C@H]4CC[C@@H](C(=O)N5CC(c6cccnc6)C5)N4C3=O)cc2c1 (stereo partly drawn) [Compound 415, propyl ((fluoro(2-(((3S,6S,9aS)-5-oxo-3-(3-(pyridin-3-yl)azetidine-1-carbonyl)octahydro-1H-pyrrolo[1,2-a]azepin-6-yl)carbamoyl)benzo [b]thiophen-5-yl)methyl)(phenoxy)phosphoryl)-L-alaninate] | < 100 nM | 1000 to 3000 nM |
|  | CCCOC(=O)[C@H](C)NP(=O)(Oc1ccccc1)C(F)(F)c1ccc2ccc(C(=O)N[C@H]3CCCC[C@H]4CC[C@@H](C(=O)N5C[C@H](c6cc[nH]c(=O)c6)CC56CC6)N4C3=O)cc2c1 (stereo partly drawn) [Compound 419, propyl ((difluoro(7-(((3S,6S,10aS)-5-oxo-3-((S)-6-(2-oxo-1,2-dihydropyridin-4-yl)-4-azaspiro[2.4]heptane-4-carbonyl)decahydropyrrolo[1,2-a]azocin-6-yl)carbamoyl)naphthalen-2-yl)methyl)(phenoxy)phosphoryl)-L-alaninate] | > 3000 nM | 100 to 1000 nM |
|  | CCCOC(=O)[C@H](C)NP(=O)(Cc1ccc2ccc(C(=O)N[C@H]3CCCC[C@H]4CC[C@@H](C(=O)N5CC(c6ccccc6)CC56CC6)N4C3=O)cc2c1)Oc1ccccc1 (stereo partly drawn) [Compound 421, propyl (((7-(((3S,6S,10aS)-5-oxo-3-(6-phenyl-4-azaspiro[2.4]heptane-4-carbonyl)decahydropyrrolo[1,2-a]azocin-6-yl)carbamoyl)naphthalen-2-yl)methyl)(phenoxy)phosphoryl)-L-alaninate] | > 3000 nM | 100 to 1000 nM |
|  | CCCOC(=O)[C@H](C)NP(=O)(Oc1ccccc1)[C@H](F)c1ccc2sc(C(=O)N[C@H]3CCCC[C@H]4CC[C@@H](C(=O)N5C[C@H](c6ccccc6)[C@@H](C#N)C56CC6)N4C3=O)cc2c1 (stereo partly drawn) [Compound 485, propyl (((S)-(2-(((3S,6S,10aS)-3-((6S,7R)-7-cyano-6-phenyl-4-azaspiro[2.4]heptane-4-carbonyl)-5-oxodecahydropyrrolo [1,2-a]azocin-6-yl)carbamoyl)benzo [b]thiophen-5-yl)fluoromethyl) (phenoxy)phosphoryl)-L-alaninate] | > 3000 nM | < 100 nM |
| 100 to 1000 nM | CCCC(=O)SCCOP(=O)(OCCSC(=O)CCC)C(F)(F)c1ccc2sc(C(=O)N[C@H]3CCC[C@H]4CC[C@@H](C(=O)N5CC(c6ncccn6)C5)N4C3=O)cc2c1 [Compound 940, S,S′-((((difluoro(2-(((3S,6S,9aS)-5-oxo-3-(3-(pyrimidin-2-yl)azetidine-1-carbonyl)octahydro-1H-pyrrolo[1,2-a]azepin-6-yl)carbamoyl)benzo [b]thiophen-5-yl)methyl)phosphoryl)bis(oxy))bis(ethane-2,1-diyl)) dibutanethioate] | < 100 nM |  |
|  | CCCOC(=O)[C@H](C)NP(=O)(Oc1ccccc1)[C@@H](F)c1ccc2sc(C(=O)N[C@H]3CCC[C@H]4CC[C@@H](C(=O)N5CC(c6cnccc6N(C)C)C5)N4C3=O)cc2c1 (stereo partly drawn) [Compound 942, propyl (((R)-(2-(((3S,6S, 9aS)-3-(3-(4-(dimethylamino)pyridin-3-yl)azetidine-1-carbonyl)-5-oxooctahydro-1H-pyrrolo[1,2-a]azepin-6-yl)carbamoyl)benzo [b]thiophen-5-yl)fluoromethyl) (phenoxy)phosphoryl)-L-alaninate] | 100 to 1000 nM | > 3000 nM |
|  | CCCOC(=O)[C@H](C)NP(=O)(Oc1ccccc1)C(F)c1ccc2sc(C(=O)N[C@H]3CCC[C@H]4CC[C@@H](C(=O)N5CC(c6cnccc6F)C5)N4C3=O)cc2c1 (stereo partly drawn) [Compound 943, propyl ((fluoro(2-(((3S,6S,9aS)-3-(3-(4-fluoropyridin-3-yl)azetidine-1-carbonyl)-5-oxooctahydro-1H-pyrrolo[1,2-a]azepin-6-yl)carbamoyl)benzo [b]thiophen-5-yl)methyl)(phenoxy)phosphoryl)-L-alaninate] | < 100 nM | > 3000 nM |
| 1000 to 3000 nM | CC(C)CC(=O)SCCOP(=O)(OCCSC(=O)CC(C)C)C(F)(F)c1ccc2sc(C(=O)N[C@H]3CCC[C@H]4CC[C@@H](C(=O)N5CC(c6ncccn6)C5)N4C3=O)cc2c1 [Compound 961, S,S′-((((difluoro(2-(((3S,6S,9aS)-5-oxo-3-(3-(pyrimidin-2-yl)azetidine-1-carbonyl)octahydro-1H-pyrrolo[1,2-a]azepin-6-yl)carbamoyl)benzo [b]thiophen-5-yl)methyl)phosphoryl)bis(oxy))bis(ethane-2,1-diyl)) bis(3-methylbutanethioate)] | < 100 nM |  |
| > 3000 nM | CC(C)(C)C(=O)SCCOP(=O)(OCCSC(=O)C(C)(C)C)C(F)(F)c1ccc2sc(C(=O)N[C@H]3CCC[C@H]4CC[C@@H](C(=O)N5CC(c6ncccn6)C5)N4C3=O)cc2c1 [Compound 962, S,S′-((((difluoro(2-(((3S,6S,9aS)-5-oxo-3-(3-(pyrimidin-2-yl)azetidine-1-carbonyl)octahydro-1H-pyrrolo[1,2-a]azepin-6-yl)carbamoyl)benzo [b]thiophen-5-yl)methyl)phosphoryl)bis(oxy))bis(ethane-2,1-diyl))bis(2,2-dimethyl-propanethioate)] | < 100 nM |  |
